Data as given in US11576914B2, “Drug for treating or preventing disorder caused by TGF-β signaling, and application thereof” (THE DOSHISHA, priority 2017, dated 2023).
Entries after “also recorded” stand apart in the source; their conditions may differ.

Columns and labels:
[1] = system: human corneal endothelial cells; assay: Cell Titer-Glo Luminescent Cell Viability Assay in the presence of AKP-001; format: cell-based; conditions: 24 hours
Protocol: Human corneal endothelial cells were peeled off with Descemet's membranes from research-purpose donor corneas, followed by culturing. For the medium, the following was used: OptiMEM-I (invitrogen, 31985-088)+8% FBS (Thermo, SH30084.03)+5 ng/mL epidermal growth factor (invitrogen, PHG0311)+20 μg/mL L-ascorbic acid 2-sesquimagnesium phosphate hydrate (SIGMA, A8960)+200 mg/L calcium chloride dihydrate (SIGMA, C7902)+0.08% chondroitin sulfate (Wako Pure Chemical Industries, Ltd., 032-14613)+50 μg/mL gentamicin (invitrogen, 15710-064)+1 μM SB431542 (WAKO, 192-16541)+10 μM SB203580 (Cayman, 13067). Culture dishes pre-coated with laminin-511E8 (Nippi, 381-07363) were used.
Cultured human corneal endothelial cells were seeded at a rate of 1×10^4 per well in a 96-well plate coated with laminin-511E8, and the cells were cultured until reaching confluence at 37° C. (5% CO2). For the medium, used was OptiMEM-I (invitrogen, 31985-088)+8% FBS (Thermo, SH30084.03)+5 ng/mL epidermal growth factor (invitrogen, PHG0311)+20 μg/mL L-ascorbic acid 2-sesquimagnesium phosphate hydrate (SIGMA, A8960)+200 mg/L calcium chloride dihydrate (SIGMA, C7902)+0.08% chondroitin sulfate (Wako Pure Chemical Industries, Ltd., 032-14613)+50 μg/mL gentamicin (invitrogen, 15710-064)+1 μM SB431542 (WAKO, 192-16541)+10 μM SB203580 (Cayman, 13067).
Upon reaching confluence, the culturing was further conducted for one more week with OptiMEM-I (invitrogen, 31985-088)+8% FBS (Thermo, SH30084.03)+20 μg/mL+200 mg/L calcium chloride dihydrate (SIGMA, C7902)+0.08% chondroitin sulfate (Wako Pure Chemical Industries, Ltd., 032-14613)+50 μg/mL gentamicin (invitrogen, 15710-064). […]
The medium was discarded to 50 μl per well, and Cell Titer-Glo Luminescent Cell Viability Assay solution (Promega, G7572) was added to the 50 μl/well to reach 1:1 with the medium. […] After standing, 50 μl was transferred to an Assay plate (Corning, 3912, Assay plate well, white polystyrene), and the […] was measured using GloMax-Multi Detection System (Promega, E7051).

[2] = system: Fuchs corneal endothelial dystrophy (FECD) model mice (Col8a2 Q455K/Q455K); assay: In vivo evaluation in FECD model mice; conditions: ophthalmic solution 0.1 mM, 1 mM, 10 mM, 2 μl twice daily, 3 months
Protocol: In the present example, mice having a type 8 collagen mutation (Col8a2^Q455K/Q455K) are used as Fuchs corneal endothelial dystrophy (FECD) model mice.
Grading of the severity of FECD was performed on the basis of corneal endothelium images prior to instillation testing, and FECD model mice aged 20-24 weeks with similar symptoms were used. The prepared AKP-001 ophthalmic solution (0.1 mM, 1 mM, and 10 mM) is instilled into the left and right eyes, 2 μl at a time, twice daily in the morning and evening for 45 mice. Otsuka Normal Saline (Otsuka Pharmaceutical Co., Ltd.) is used as a control. The instillation period is set to be 3 months, during which the person in charge of the experimentation carries out the experimentation in a blinded state regarding the AKP-001 ophthalmic solution and the control ophthalmic solution.
Prior to the start of the instillation testing, corneal endothelial images are observed with a contact corneal endothelial specular (KSSP slit-scanning wide-field contact specular microscope (Konan medical Inc., Hyogo, Japan)) to conduct grading. After starting the instillation testing, the corneal endothelial images of the mice are observed once every 4 weeks using the contact corneal endothelial specular to evaluate the effectiveness of the AKP-001 ophthalmic solution.

[3] = system: Fuchs' endothelial corneal dystrophy patient-derived immortalized corneal endothelial cells; assay: Cell damage inhibitory effect on iFECD stimulated with TGF-β2 (phase contrast microscope); format: cell-based, human
Protocol: The medium was removed from the culture dish in which Fuchs' endothelial corneal dystrophy patient-derived immortalized corneal endothelial cells (hereinafter, referred to as disease model cells) were being cultured, and the cells were supplemented with 1×PBS (−) that was preheated to 37° C., and were washed. This operation was repeated twice. The cells were supplemented with 1×PBS (−) again and incubated for 5 minutes at 37° C. (5% CO2). After the PBS (−) was removed, the cells were supplemented with 0.05% Trypsin-EDTA (nacalai tesque, 32778-34) and incubated for 5 minutes at 37° C. (5% CO2). The cells were then suspended in a medium, and collected by centrifugation at 1500 rpm for 3 minutes. DMEM (nacalai tesque, 08456-36)+10% FBS (Biowest, S1820-500)+1% P/S (nacalai tesque, 26252-94) was used as the medium. The disease model cells were seeded in a 6-well plate at a rate of 1.5×10^5 cells per well and cultured at 37° C. (5% CO2) for 48 hours. DMEM+10% FBS+1% P/S was used as the medium.
After 48 hours, the medium was removed, and AKP-001, SB203580 (Cayman, 13067), PH-797804 (Selleck Chemicals, S2726) and VX-702 (Selleck Chemicals, 56005) were added to DMEM+2% FBS+1% P/S so that the final concentration was 0.01, 0.03, 0.1, 0.3, 1, 3, 10 and 30 μM, followed by culturing as 24-hour pretreatment. After 24 hours, the medium was removed, and AKP-001, 5B203580 (Cayman, 13067), PH-797804 (Selleck Chemicals, S2726), or VX-702 (Selleck Chemicals, S6005), together with 100 ng/ml Recombinant Human TGF-β2 (R&D systems, RND302-B2-002), were added to DMEM+2% FBS+1% P/S so that the final concentration was 0.01 μM, 0.03 μM, 0.1 μM, 0.3 μM, 1 μM, 3 μM, 10 μM, and 30 μM, followed by culturing for 24 hours. After 24 hours, cell damage was evaluated by observation with a phase contrast microscope. As a control, immortalized corneal endothelial cells that were not stimulated with TGF-β were used.

O=C(Cc1c(F)cccc1Cl)Nc1onc(-c2ccc(F)cc2)c1-c1ccncn1 [AKP-001, 5-[(2-chloro-6-fluorophenyl)acetylamino]-3-(4-fluorophenyl)-4-(4-pyrimidinyl)isoxazole]
cell damage (cell viability) ([1]; 0.1 μM, 0.3 μM, 1 μM, 3 μM or 10 μM): no cell damage was observed | number of the cells (cell viability) ([1]; 30 μM and 100 μM): significantly reduced the number of the cells | concentrations at which less toxic to the cells [1]: less than 30 μM | decrease in corneal endothelial cell density compared to the control [2]: suppressed | percentage of the area of guttae compared to the control [2]: decreased | damage inhibitory effect for the corneal endothelial cells ([3]; 0.01 μM): observed | disorder in the corneal endothelial cells ([3]; 0.1 μM, 0.3 μM, 1 μM and 3 μM, iFECD, pretreatment, TGF-β2 stimulation): effectively suppressed | cell damage inhibitory effect for the corneal endothelial cells ([3]; at sub-μM): exerted an inhibitory effect; also recorded: able to suppress cell damage
